For 26 compounds, AC1.4 results are on record in US11780826B2 (Amgen Inc., priority 2017, dated 2023).

The experiment relates to Bovine cardiac myofibrils. Description: In vitro model of dose-dependent myofibril ATPase modulation (AC1.4, pyruvate kinase/lactate dehydrogenase-coupled ATPase assay at pCa25). To be noted: concentration at which ATPase activity was 1.4-fold higher than the bottom of the dose curve, mean of a minimum of two independent tests. The format is biochemical. A digest of the protocol: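 ATP turnover tracked as NADH absorbance loss at 340 nm, coupled via pyruvate kinase/lactate dehydrogenase, with 1 mM ATP, 2 mM MgCl2 and 12 mM K-PIPES at pH 6.80 (22° C) under EGTA/CaCl2 calcium buffering. Substrate was detergent-treated bovine cardiac myofibrils; 4-parameter curve fit, AC1.4 averaged over at least two runs.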

The compound `C[C@@H](NC(=O)[C@H]1CCCN1C(=O)[C@H]1CCCN(S(=O)(=O)N2CC(C#N)C2)C1)c1ccc(Cl)c(F)c1` [Example 69, N-((1R)-1-(4-chloro-3-fluorophenyl)ethyl)-1-(((3S)-1-((3-cyano-1-azetidinyl)sulfonyl)-3-piperidinyl)carbonyl)-D-prolinamide] returned an AC1.4 of 0.08835 µM.

The compound `N#CC1CN(S(=O)(=O)N2CCC[C@H](C(=O)N3CCC[C@@H]3C(=O)NCc3ccc(Cl)cc3F)C2)C1` [Example 70, N-(4-chloro-2-fluorobenzyl)-1-(((3S)-1-((3-cyano-1-azetidinyl)sulfonyl)-3-piperidinyl)carbonyl)-D-prolinamide] showed an AC1.4 of 0.08855 µM.

`C[C@@H](NC(=O)[C@H]1CCCN1C(=O)c1cccc(S(=O)(=O)N2CC(C#N)C2)c1)c1ccc(Cl)cc1` [Example 71, N-((1R)-1-(4-chlorophenyl)ethyl)-1-((3-((3-cyano-1-azetidinyl)sulfonyl)phenyl)carbonyl)-D-prolinamide] had an AC1.4 of 0.08898 µM.

In turn, `CS(=O)(=O)C1CN(S(=O)(=O)N2CCC[C@H](C(=O)N3CCC[C@@H]3C(=O)NCc3ccc(C(F)(F)F)cc3)C2)C1` [Example 72, 1-(((3S)-1-((3-(methylsulfonyl)-1-azetidinyl)sulfonyl)-3-piperidinyl)carbonyl)-N-(4-(trifluoromethyl)benzyl)-D-prolinamide] had an AC1.4 of 0.09025 µM.

Turning to `C[C@@H](NC(=O)[C@H]1CCCN1C(=O)[C@@H]1CN(S(=O)(=O)N2CC(C#N)C2)CCO1)c1ccc(C(F)(F)F)cc1F` [Example 73, 1-(((2S)-4-((3-cyano-1-azetidinyl)sulfonyl)-2-morpholinyl)carbonyl)-N-((1R)-1-(2-fluoro-4-(trifluoromethyl)phenyl)ethyl)-D-prolinamide], the AC1.4 was 0.09745 µM.

Take `CS(=O)(=O)c1cccc(C(=O)N2[C@@H](C(=O)N[C@@H](c3cc(F)c(Cl)cc3F)C3COC3)C[C@H]3C[C@H]32)c1` [Example 74, (1R,3R,5R)-N-((R)-(4-chloro-2,5-difluorophenyl)(3-oxetanyl)methyl)-2-(3-(methylsulfonyl)benzoyl)-2-azabicyclo[3.1.0]hexane-3-carboxamide]: the AC1.4 is 0.09935 µM.

Consider `CN(Cc1ccc(C(F)(F)F)cc1)C(=O)[C@H]1CCCN1C(=O)c1cccc(S(=O)(=O)N2CC(C#N)C2)c1` [Example 75, 1-((3-((3-cyano-1-azetidinyl)sulfonyl)phenyl)carbonyl)-N-methyl-N-(4-(trifluoromethyl)benzyl)-D-prolinamide], for which the AC1.4 was 0.1006 µM.

On to `Cc1ccc(CNC(=O)[C@H]2CCCN2C(=O)c2cccc(S(=O)(=O)N3CC(C#N)C3)c2)c(F)c1` [Example 76, 1-((3-((3-cyano-1-azetidinyl)sulfonyl)phenyl)carbonyl)-N-(2-fluoro-4-methylbenzyl)-D-prolinamide], for which the AC1.4 is 0.1008 µM.

For the compound `N#CC1CN(S(=O)(=O)N2CC(C(=O)N3CCC[C@@H]3C(=O)NCc3ccc(C(F)(F)F)cc3)CC(F)(F)C2)C1` (stereo partly drawn) [Example 77, 1-((-1-((3-cyano-1-azetidinyl)sulfonyl)-5,5-difluoro-3-piperidinyl)carbonyl)-N-(4-(trifluoromethyl)benzyl)-D-prolinamide], the AC1.4 turned out to be 0.1016 µM.

`N#CC1CN(S(=O)(=O)N2CCC[C@H](C(=O)N3CCC[C@@H]3C(=O)N[C@H](CO)c3ccc(Cl)c(F)c3)C2)C1` [Example 78, N-((1S)-1-(4-chloro-3-fluorophenyl)-2-hydroxyethyl)-1-(((3S)-1-((3-cyano-1-azetidinyl)sulfonyl)-3-piperidinyl)carbonyl)-D-prolinamide] returned an AC1.4 of 0.1023 µM.

`CCNc1ccc(S(C)(=O)=O)cc1C(=O)N1CCC[C@@H]1C(=O)N[C@@H](c1ccc(C(F)(F)F)cc1F)C1CC1` [Example 79, N-((R)-cyclopropyl(2-fluoro-4-(trifluoromethyl)phenyl)methyl)-1-(2-(ethylamino)-5-(methylsulfonyl)benzoyl)-D-prolinamide] came in with an AC1.4 of 0.104 µM.

The compound `COC(=O)CS(=O)(=O)c1cccc(C(=O)N2[C@@H](C(=O)N[C@@H](c3cc(F)c(C(F)(F)F)cc3F)C3CC3)C[C@H]3C[C@H]32)c1` [Example 80, methyl((3-(((1R,3R,5R)-3-(((R)-cyclopropyl(2,5-difluoro-4-(trifluoromethyl)phenyl)methyl)carbamoyl)-2-azabicyclo[3.1.0]hexan-2-yl)carbonyl)phenyl)sulfonyl)acetate] came in with an AC1.4 of 0.1046 µM.

`CC(C)Nc1ccc(S(C)(=O)=O)cc1C(=O)N1CCC[C@@H]1C(=O)N[C@@H](c1ccc(C(F)(F)F)cc1F)C1CC1` [Example 81, N-((R)-cyclopropyl(2-fluoro-4-(trifluoromethyl)phenyl)methyl)-1-(5-(methylsulfonyl)-2-(2-propanylamino)benzoyl)-D-prolinamide] yielded an AC1.4 of 0.1048 µM.

On to `C[C@@H]1CCN(S(=O)(=O)N2CC(C#N)C2)C[C@H]1C(=O)N1CCC[C@@H]1C(=O)NCc1ccc(C(F)(F)F)cc1` [Example 82, 1-(((3S,4R)-1-((3-cyano-1-azetidinyl)sulfonyl)-4-methyl-3-piperidinyl)carbonyl)-N-(4-(trifluoromethyl)benzyl)-D-prolinamide], for which the AC1.4 was 0.1085 µM.

Take `CS(=O)(=O)c1cc(F)cc(C(=O)N2[C@@H](C(=O)N[C@@H](c3cc(F)c(Cl)cc3F)C3COC3)C[C@H]3C[C@H]32)c1` [Example 83, (1R,3R,5R)-N-((R)-(4-chloro-2,5-difluorophenyl)(3-oxetanyl)methyl)-2-(3-fluoro-5-(methylsulfonyl)benzoyl)-2-azabicyclo[3.1.0]hexane-3-carboxamide]: the AC1.4 was found to be 0.1146 µM.

Compound `C[C@@H](NC(=O)[C@H]1CCCN1C(=O)[C@H]1CCCN(S(=O)(=O)N2CC(C#N)C2)C1)c1ccc(C(F)(F)F)cc1` [Example 84, 1-(((3S)-1-((3-cyano-1-azetidinyl)sulfonyl)-3-piperidinyl)carbonyl)-N-((1R)-1-(4-(trifluoromethyl)phenyl)ethyl)-D-prolinamide] came in with an AC1.4 of 0.1147 µM.

Regarding `CC[C@H](NC(=O)[C@H]1CCCN1C(=O)c1cccc(S(=O)(=O)N2CC(C#N)C2)c1)c1ccc(C(F)(F)F)cc1` [Example 85, 1-(3-((3-cyano-1-azetidinyl)sulfonyl)benzoyl)-N-((1S)-1-(4-(trifluoromethyl)phenyl)propyl)-D-prolinamide], the AC1.4 was 0.1157 µM.

Compound `N#CC1CN(S(=O)(=O)N2CCC[C@H](C(=O)N3CCC[C@@H]3C(=O)N[C@H](CO)c3ccc(C(F)(F)F)cc3)C2)C1` [Example 88, 1-(((3S)-1-((3-cyano-1-azetidinyl)sulfonyl)-3-piperidinyl)carbonyl)-N-((1S)-2-hydroxy-1-(4-(trifluoromethyl)phenyl)ethyl)-D-prolinamide] displayed an AC1.4 of 0.1344 µM.

`CCCS(=O)(=O)c1cccc(C(=O)N2CCCC[C@@H]2C(=O)N[C@@H](c2ccc(C(F)(F)F)cc2F)C2CC2)c1` [Example 89, (2R)-N-((R)-cyclopropyl(2-fluoro-4-(trifluoromethyl)phenyl)methyl)-1-(3-(propylsulfonyl)benzoyl)-2-piperidinecarboxamide] yielded an AC1.4 of 0.1357 µM.

In the case of `N#CC1CN(S(=O)(=O)N2CCC[C@H](C(=O)N3C[C@H]4C[C@H]4[C@@H]3C(=O)NCc3ccc(C(F)(F)F)cc3)C2)C1` [Example 90, (1R,2R,5S)-3-(((3S)-1-((3-cyano-1-azetidinyl)sulfonyl)-3-piperidinyl)carbonyl)-N-(4-(trifluoromethyl)benzyl)-3-azabicyclo[3.1.0]hexane-2-carboxamide], the AC1.4 was found to be 0.1363 µM.

For the compound `O=C(N[C@@H](c1cc(F)c(Cl)cc1F)C1CC1)[C@H]1C[C@H]2C[C@H]2N1C(=O)c1cccc(S(=O)(=O)C2CC2)c1` [Example 92, (1R,3R,5R)-N-((R)-(4-chloro-2,5-difluorophenyl)(cyclopropyl)methyl)-2-(3-(cyclopropylsulfonyl)benzoyl)-2-azabicyclo[3.1.0]hexane-3-carboxamide], the AC1.4 is 0.1388 µM.

Regarding `N#CC1CN(S(=O)(=O)c2cccc(C(=O)N3Cc4ccccc4C3C(=O)NCc3ccc(C(F)(F)F)cc3)c2)C1` (centres unmarked) [Example 93, 2-((3-((3-cyano-1-azetidinyl)sulfonyl)phenyl)carbonyl)-N-(4-(trifluoromethyl)benzyl)-2,3-dihydro-1H-isoindole-1-carboxamide], the AC1.4 came to 0.1413 µM.

Compound `O=C(N[C@@H](c1cc(F)c(Cl)cc1F)C1COC1)[C@H]1C[C@H]2C[C@H]2N1C(=O)c1cccc(S(=O)(=O)CCO)c1` [Example 94, (1R,3R,5R)-N-((R)-(4-chloro-2,5-difluorophenyl)(3-oxetanyl)methyl)-2-(3-((2-hydroxyethyl)sulfonyl)benzoyl)-2-azabicyclo[3.1.0]hexane-3-carboxamide] showed an AC1.4 of 0.1425 µM.

Consider `N#CC1CN(S(=O)(=O)c2cccc(C(=O)N3CC(F)(F)C[C@@H]3C(=O)NCc3ccc(C(F)(F)F)nc3)c2)C1` [Example 95, 1-((3-((3-cyano-1-azetidinyl)sulfonyl)phenyl)carbonyl)-4,4-difluoro-N-((6-(trifluoromethyl)-3-pyridinyl)methyl)-D-prolinamide], for which the AC1.4 worked out at 0.1446 µM.

For `N#CC1CN(S(=O)(=O)c2cccc(C(=O)N3CCCCCC3C(=O)NCc3ccc(C(F)(F)F)cc3)c2)C1` (centres unmarked) [Example 96, (2)-1-((3-((3-cyano-1-azetidinyl)sulfonyl)phenyl)carbonyl)-N-(4-(trifluoromethyl)benzyl)-2-azepanecarboxamide], the AC1.4 stood at 0.1452 µM.

For `COCC(NC(=O)[C@H]1CCCN1C(=O)[C@H]1CCCN(S(=O)(=O)N2CC(C#N)C2)C1)c1ccc(Cl)cc1` (stereo partly drawn) [Example 97, N-(-1-(4-chlorophenyl)-2-methoxyethyl)-1-(((3S)-1-((3-cyano-1-azetidinyl)sulfonyl)-3-piperidinyl)carbonyl)-D-prolinamide], the AC1.4 amounted to 0.1466 µM.
